Test [1] addresses T1, β5 subunit of the human immunoproteasome (IPS) (Homo sapiens, UniProt P28062).
T1 construct: purchased Boston Biochem E-370
The experiment in a line: β5 inhibition assay, human immunoproteasome (Suc-LLVY-AMC). Conditions: IC50 class, Suc-LLVY-AMC substrate. The test is classed as biochemical. In short, it runs like this:
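β5 activity is read as liberated AMC fluorescence (355/460 nm) after 4 h dark reaction at RT with 22.6 μM Suc-LLVY-AMC, stopped by 1 μM bortezomib. Beforehand, 1 nM human IPS and compound sat 10 min at RT in HEPES pH 7.5 buffer containing NaCl, 0.02% SDS and DTT.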

Test [2] concerns A549 (human lung carcinoma cell line). As to the kind of experiment: Glo assay of A549 cells (Table 3; ProteasomeGlo plating scheme). Conditions: Homo sapiens; A549 cells; read-out: PGLo A549. Format: cell-based. In short, it runs like this: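 Luminescent read-out of cellular chymotrypsin-like proteasome activity: cells exposed to compound 105 min at 37° C., 5% CO2, then given Suc-LLVY-Glo reagent, shaken 2-5 min and kept dark 10-15 min before reading. Values are IC50 [nM].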

pIC50: −log10 of the molar value. A value given as a limit tells only on which side of the number the result lay.

`Cc1ccc2cc1CNC(=O)[C@H](CCc1ccccc1)NC(=O)[C@@H](Nc1ccccn1)CC(=O)N1CCCC(CCO2)C1` (stereo partly drawn) [Compound 36, (9S,12S)-5^4-methyl-9-phenethyl-12-(pyridin-2-ylamino)-4-oxa-7,10-diaza-1(3,1)-piperidina-5(1,3)-benzenacyclotetradecaphane-8,11,14-trione]: the pIC50 was more than 7.00 in test [1] and 6.30 to 7.00 in test [2].
For the compound `Cc1ccc2cc1CNC(=O)[C@H](CCc1ccccc1)NC(=O)[C@@H](NC(=O)C1(C)CCNCC1)CC(=O)N1CCCC(CCO2)C1` (stereo partly drawn) [Compound 136, 4-methyl-N-((9S,12S)-5^4-methyl-8,11,14-trioxo-9-phenethyl-4-oxa-7,10-diaza-1(3,1)-piperidina-5(1,3)-benzenacyclotetradecaphane-12-yl)piperidine-4-carboxamide], the pIC50 in test [1] and in test [2] was more than 7.00 in each case.
Take `Cc1nc2cc(CCC(=O)N[C@H]3CC(=O)N4CCCC(CCOc5ccc(C)c(c5)CNC(=O)[C@H](CCc5ccccc5)NC3=O)C4)ccc2[nH]1` (stereo partly drawn) [Compound 174, 3-(2-methyl-1H-benzo[d]imidazol-6-yl)-N-((9S,12S)-5^4-methyl-8,11,14-trioxo-9-phenethyl-4-oxa-7,10-diaza-1(3,1)-piperidina-5(1,3)-benzenacyclotetradecaphane-12-yl)propanamide]: the pIC50 in test [1] and in test [2] was more than 7.00 in each case.
On to `CC(=O)N[C@H]1CCC(=O)N2CCCC(CCOc3ccc(C)c(c3)CNC(=O)[C@H](CCc3ccccc3)NC1=O)C2` (stereo partly drawn) [Compound 215, N-((9S,12S)-5^4-methyl-8,11,15-trioxo-9-phenethyl-4-oxa-7,10-diaza-1(3,1)-piperidina-5(1,3)-benzenacyclopentadecaphane-12-yl)acetamide], for which the pIC50 in test [1] was more than 7.00; in test [2], 6.30 to 7.00.
Take `Cc1ccc2cc1CNC(=O)[C@H](CCc1ccccc1)NC(=O)[C@@H](NC(=O)CCc1ccc3[nH]ccc3c1)CC(=O)N1CCCC(CCO2)C1` (stereo partly drawn) [Compound 182, 3-(1H-indol-5-yl)-N-((9S,12S)-5^4-methyl-8,11,14-trioxo-9-phenethyl-4-oxa-7,10-diaza-1(3,1)-piperidina-5(1,3)-benzenacyclotetradecaphane-12-yl)propanamide]: the pIC50 in test [1] and in test [2] was more than 7.00 each time.
Regarding `Cc1ccc2cc1CNC(=O)[C@H](CCc1ccccc1)NC(=O)[C@@H](NC(=O)CN1CCOCC1)CC(=O)N1CCCC(CCO2)C1` (stereo partly drawn) [Compound 88, N-((9S,12S)-5^4-methyl-8,11,14-trioxo-9-phenethyl-4-oxa-7,10-diaza-1(3,1)-piperidina-5(1,3)-benzenacyclotetradecaphane-12-yl)-2-morpholinoacetamide], the pIC50 in test [1] and in test [2] was more than 7.00 throughout.
Regarding `Cc1ccc2cc1CNC(=O)[C@H](CCc1ccccc1)NC(=O)[C@@H](NC(=O)Cc1ccc(N)cc1)CC(=O)N1CCCC(CCO2)C1` (stereo partly drawn) [Compound 128, 2-(4-aminophenyl)-N-((9S,12S)-5^4-methyl-8,11,14-trioxo-9-phenethyl-4-oxa-7,10-diaza-1(3,1)-piperidina-5(1,3)-benzenacyclotetradecaphane-12-yl)acetamide], the pIC50 in test [1] and in test [2] was more than 7.00 each time.
Regarding `COc1ccc(CC(=O)N[C@H]2CC(=O)N3CCCC(CCOc4ccc(C)c(c4)CNC(=O)[C@H](CCc4ccccc4)NC2=O)C3)cc1` (stereo partly drawn) [Compound 83, 2-(4-methoxyphenyl)-N-((9S,12S)-5^4-methyl-8,11,14-trioxo-9-phenethyl-4-oxa-7,10-diaza-1(3,1)-piperidina-5(1,3)-benzenacyclotetradecaphane-12-yl)acetamide], the pIC50 in test [1] and in test [2] was more than 7.00 in each case.
As for `CC(=O)N[C@H]1CCCC(=O)N2CCC2(C)COc2ccc(C)c(c2)CNC(=O)[C@H](CCc2ccccc2)NC1=O` (stereo partly drawn) [Compound 281, N-((8S,11S)-1^2,4^4-dimethyl-7,10,15-trioxo-8-phenethyl-3-oxa-6,9-diaza-1(2,1)-azetidina-4(1,3)-benzenacyclopentadecaphane-11-yl)acetamide], the pIC50 in test [1] and in test [2] was 5.30 to 6.00 in each case.
Consider `CC(=O)N[C@H]1CCCC(=O)N2CCCC(CCOc3ccc(C)c(c3)CNC(=O)[C@H](CCc3ccccc3)NC1=O)C2` (stereo partly drawn) [Compound 213, N-((9S,12S)-5^4-methyl-8,11,16-trioxo-9-phenethyl-4-oxa-7,10-diaza-1(3,1)-piperidina-5(1,3)-benzenacyclohexadecaphane-12-yl)acetamide], for which the pIC50 was more than 7.00 in test [1] and 6.30 to 7.00 in test [2].
With `Cc1ccc2cc1CNC(=O)[C@H](CCc1ccccc1)NC(=O)[C@@H](N)CC(=O)N1CCCC(CCO2)C1` (stereo partly drawn) [Compound 8, (9S,12S)-12-amino-5^4-methyl-9-phenethyl-4-oxa-7,10-diaza-1(3,1)-piperidina-5(1,3)-benzenacyclotetradecaphane-8,11,14-trione], the pIC50 was more than 7.00 in test [1] and 6.00 to 6.30 in test [2].
Take `Cc1ccc2cc1CNC(=O)[C@H](CCc1ccccc1)NC(=O)[C@@H](NC(=O)C1CCNCC1(F)F)CC(=O)N1CCCC(CCO2)C1` (stereo partly drawn) [Compound 152, 3,3-difluoro-N-((9S,12S)-5^4-methyl-8,11,14-trioxo-9-phenethyl-4-oxa-7,10-diaza-1(3,1)-piperidina-5(1,3)-benzenacyclotetradecaphane-12-yl)piperidine-4-carboxamide]: the pIC50 in test [1] and in test [2] was more than 7.00 each time.
With `Cc1ccc2cc1CNC(=O)[C@H](CCc1ccccc1)NC(=O)[C@@H](NC(=O)C1CCCc3ccccc31)CC(=O)N1CCCC(CCO2)C1` (stereo partly drawn) [Compound 82, N-((9S,12S)-5^4-methyl-8,11,14-trioxo-9-phenethyl-4-oxa-7,10-diaza-1(3,1)-piperidina-5(1,3)-benzenacyclotetradecaphane-12-yl)-1,2,3,4-tetrahydronaphthalene-1-carboxamide], the pIC50 in test [1] and in test [2] was more than 7.00 throughout.
As for `CC(=O)N[C@H]1CCC(=O)N(C)CCCCOc2ccc(C)c(c2)CNC(=O)[C@H](CCc2ccccc2)NC1=O` [Compound 282, N-((11S,14S)-1^4,7-dimethyl-8,12,15-trioxo-1^4-phenethyl-2-oxa-7,13,16-triaza-1(1,3)-benzenacycloheptadecaphane-11-yl)acetamide], the pIC50 was 6.00 to 6.30 in test [1] and less than 5.30 in test [2].
As to `Cc1ccc2cc1CNC(=O)[C@H](CCc1ccccc1)NC(=O)[C@@H](NC(=O)C(C)(CO)CO)CC(=O)N1CCCC(CCO2)C1` (stereo partly drawn) [Compound 286, 3-hydroxy-2-(hydroxymethyl)-2-methyl-N-((9S,12S)-5^4-methyl-8,11,14-trioxo-9-phenethyl-4-oxa-7,10-diaza-1(3,1)-piperidina-5(1,3)-benzenacyclotetradecaphane-12-yl)propanamide], the pIC50 was more than 7.00 in test [1] and 6.30 to 7.00 in test [2].
As for `CC(=O)N[C@H]1CC(=O)N2CCCC(CCOc3ccc(F)c(c3)CNC(=O)[C@H](CCc3ccccc3)NC1=O)C2` (stereo partly drawn) [Compound 205, N-((9S,12S)-5^4-fluoro-8,11,14-trioxo-9-phenethyl-4-oxa-7,10-diaza-1(3,1)-piperidina-5(1,3)-benzenacyclotetradecaphane-12-yl)acetamide], the pIC50 in test [1] and in test [2] was more than 7.00 each time.
For `Cc1ccc2cc1CNC(=O)[C@H](CCc1ccccc1)NC(=O)[C@@H](NC(=O)C(C)(C)C#N)CC(=O)N1CCCC(CCO2)C1` (stereo partly drawn) [Compound 294, 2-cyano-2-methyl-N-((9S,12S)-54-methyl-8,11,14-trioxo-9-phenethyl-4-oxa-7,10-diaza-1(3,1)-piperidina-5(1,3)-benzenacyclotetradecaphane-12-yl)propanamide], the pIC50 in test [1] and in test [2] was more than 7.00 each time.
As to `Cc1ccc2cc1CNC(=O)[C@H](CCc1ccccc1)NC(=O)[C@@H](NC(=O)C1CCC(C(F)(F)F)N1)CC(=O)N1CCCC(CCO2)C1` (stereo partly drawn) [Compound 157, N-((9S,12S)-5^4-methyl-8,11,14-trioxo-9-phenethyl-4-oxa-7,10-diaza-1(3,1)-piperidina-5(1,3)-benzenacyclotetradecaphane-12-yl)-5-(trifluoromethyl)pyrrolidine-2-carboxamide], the pIC50 in test [1] was more than 7.00; in test [2], 6.30 to 7.00.
Regarding `Cc1ccc2cc1CNC(=O)[C@H](CCc1ccccc1)NC(=O)[C@@H](NC(=O)C1(N)CCOC1)CC(=O)N1CCCC(CCO2)C1` (stereo partly drawn) [Compound 159, 3-amino-N-((9S,12S)-5^4-methyl-8,11,14-trioxo-9-phenethyl-4-oxa-7,10-diaza-1(3,1)-piperidina-5(1,3)-benzenacyclotetradecaphane-12-yl)tetrahydrofuran-3-carboxamide], the pIC50 in test [1] was more than 7.00; in test [2], 6.30 to 7.00.
As to `C=CS(=O)(=O)N[C@H]1CC(=O)N2CCCC(CCOc3ccc(C)c(c3)CNC(=O)[C@H](CCc3ccccc3)NC1=O)C2` (stereo partly drawn) [Compound 180, N-((9S,12S)-5^4-methyl-8,11,14-trioxo-9-phenethyl-4-oxa-7,10-diaza-1(3,1)-piperidina-5(1,3)-benzenacyclotetradecaphane-12-yl)ethenesulfonamide], the pIC50 in test [1] and in test [2] was more than 7.00 in each case.
Turning to `Cc1ccc2cc1CNC(=O)[C@H](CCc1ccccc1)NC(=O)[C@@H](NC(=O)CCc1ccc(Br)cc1)CC(=O)N1CCCC(CCO2)C1` (stereo partly drawn) [Compound 175, 3-(4-bromophenyl)-N-((9S,12S)-5^4-methyl-8,11,14-trioxo-9-phenethyl-4-oxa-7,10-diaza-1(3,1)-piperidina-5(1,3)-benzenacyclotetradecaphane-12-yl)propanamide], the pIC50 in test [1] and in test [2] was more than 7.00 in each case.

(Values after patent US20240415819A1, “MACROCYCLIC COMPOUNDS AS PROTEASOME SUBUNIT BETA TYPE-5 INHIBITORS” (Lead Discovery Center GmbH, priority 2021, published 2024).)
